Calls of active or inactive are those of the source.
Assays:
[1] = Inhibition of Plasmodium falciparum NF54 Measured in Cell-Based System Using Plate Reader - 2138-11_Inhibitor_Dose_CherryPick_Activity.; assay type: functional
[2] = Inhibition of T. cruzi Tulahuen strain amastigotes in L-6 muscle cells Measured in Cell-Based and Microorganism Combination System Using Plate Reader - 2138-03_Inhibitor_Dose_CherryPick_Activity.; assay type: functional; settings: Rattus norvegicus, L6
[3] = African trypanosome bloodstream form growth inhibition – STIB900 strain, plate reader, cherry pick, dose response (AID 651893); assay type: functional, cell-based, Trypanosoma brucei rhodesiense; settings: Trypanosoma brucei
[4] = intracellular Trypanosoma cruzi inhibitors in host cells – cell-based, plate reader, cherry-pick samples, set 3, dose response (AID 651818); assay type: functional;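 note: compounds incubated with infected cells for about four days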
[5] = antileishmanial activity on axenic amastigotes – plate reader, cherry pick, dose response (AID 651891); assay type: functional, cell-based; settings: Leishmania donovani
[6] = L6 myocyte viability loss – cell-based, plate reader, cherry-pick, cytotoxicity control, dose response (AID 651896); assay type: functional
[7] = biological target: T1, Protein disulfide-isomerase (Homo sapiens, UniProt P07237); assay: inhibition of PDI-driven insulin aggregation – biochemical, turbidity, absorbance, cherry-picked samples, dose response (AID 602350); assay type: functional
T1 sequence (P07237 whole entry): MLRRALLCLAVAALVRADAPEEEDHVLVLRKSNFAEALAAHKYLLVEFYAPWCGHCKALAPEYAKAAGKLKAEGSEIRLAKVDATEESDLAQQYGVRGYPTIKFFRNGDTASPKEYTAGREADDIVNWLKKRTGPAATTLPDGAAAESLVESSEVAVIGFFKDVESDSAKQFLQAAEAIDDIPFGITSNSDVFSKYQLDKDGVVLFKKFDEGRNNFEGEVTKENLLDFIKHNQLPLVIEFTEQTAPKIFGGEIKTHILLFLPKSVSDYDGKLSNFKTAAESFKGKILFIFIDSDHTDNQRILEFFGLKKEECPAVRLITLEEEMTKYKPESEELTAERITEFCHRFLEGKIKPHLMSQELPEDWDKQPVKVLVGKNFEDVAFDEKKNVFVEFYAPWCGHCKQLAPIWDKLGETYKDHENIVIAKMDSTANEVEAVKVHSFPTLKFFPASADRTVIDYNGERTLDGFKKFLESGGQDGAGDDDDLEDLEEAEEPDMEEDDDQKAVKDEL

[8] = biological target: T1, Protein disulfide-isomerase; assay: inhibition of PDI-mediated insulin reduction – biochemical, turbidity, absorbance, cherry-picked samples, set 2, dose response (AID 624274); assay type: functional
[9] = biological target: T2, ATP-dependent translocase ABCB1 (Homo sapiens, UniProt P08183); assay: inhibition of BCRP-mediated JC-1 efflux – Ig-MXP3 cells, flow cytometry, set 2, dose response (AID 504566); assay type: functional; settings: read-out: EC50_MICROM_;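 note: flow cytometry median green fluorescence of retained JC-1 dye; potency of efflux pump inhibition measured as rising substrate retention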
T2 sequence (P08183 whole entry): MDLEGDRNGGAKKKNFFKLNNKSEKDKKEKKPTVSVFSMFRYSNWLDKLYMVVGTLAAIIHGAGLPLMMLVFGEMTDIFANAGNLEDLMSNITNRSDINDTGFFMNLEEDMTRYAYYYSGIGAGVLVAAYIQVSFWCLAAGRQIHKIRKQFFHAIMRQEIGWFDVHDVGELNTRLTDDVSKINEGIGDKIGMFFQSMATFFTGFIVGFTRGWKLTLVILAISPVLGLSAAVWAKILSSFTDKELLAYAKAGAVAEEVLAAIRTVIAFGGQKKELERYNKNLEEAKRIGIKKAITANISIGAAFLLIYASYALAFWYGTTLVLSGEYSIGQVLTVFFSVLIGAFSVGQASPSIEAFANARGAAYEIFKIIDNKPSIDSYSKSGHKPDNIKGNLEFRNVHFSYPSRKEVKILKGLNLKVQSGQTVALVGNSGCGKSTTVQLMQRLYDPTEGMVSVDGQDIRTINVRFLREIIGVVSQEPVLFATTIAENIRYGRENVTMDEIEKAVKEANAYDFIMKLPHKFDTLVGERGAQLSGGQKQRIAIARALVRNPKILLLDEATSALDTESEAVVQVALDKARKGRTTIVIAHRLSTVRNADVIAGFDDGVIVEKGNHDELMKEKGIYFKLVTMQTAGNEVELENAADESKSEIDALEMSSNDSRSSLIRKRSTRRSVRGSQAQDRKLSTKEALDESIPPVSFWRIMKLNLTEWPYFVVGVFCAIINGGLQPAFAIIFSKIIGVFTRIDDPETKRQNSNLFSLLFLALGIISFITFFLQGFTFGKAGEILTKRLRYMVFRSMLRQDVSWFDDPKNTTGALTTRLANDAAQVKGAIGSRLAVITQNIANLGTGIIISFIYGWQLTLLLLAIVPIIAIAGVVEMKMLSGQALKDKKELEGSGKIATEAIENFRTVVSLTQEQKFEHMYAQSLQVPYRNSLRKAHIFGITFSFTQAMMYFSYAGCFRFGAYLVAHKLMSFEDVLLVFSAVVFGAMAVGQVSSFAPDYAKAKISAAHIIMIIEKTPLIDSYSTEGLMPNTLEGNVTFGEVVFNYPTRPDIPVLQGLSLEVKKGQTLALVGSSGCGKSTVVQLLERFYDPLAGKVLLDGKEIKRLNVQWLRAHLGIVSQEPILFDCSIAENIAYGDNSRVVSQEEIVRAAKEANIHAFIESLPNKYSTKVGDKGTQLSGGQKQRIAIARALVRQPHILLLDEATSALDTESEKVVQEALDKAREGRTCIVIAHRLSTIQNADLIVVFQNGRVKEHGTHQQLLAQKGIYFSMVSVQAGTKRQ

[10] = biological target: T2, ATP-dependent translocase ABCB1; assay: P-gp JC-1 efflux blockade concentration-response – Jurkat-DNR cells, flow cytometry, set 2, dose response (AID 504569); assay type: functional; settings: read-out: EC50_MICROM_;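 note: potency of pump inhibitors that raise cellular JC-1 green fluorescence up to the nicardipine level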
[11] = microbe, parasite or virus in culture; assay type: functional; settings: Mycobacterium tuberculosis
[12] = biological target: T3, Ubiquitin-conjugating enzyme E2 N (Homo sapiens, UniProt P61088); assay type: functional;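 note: Dose-response confirmation in a TR-FRET assay detecting UBC13-driven polyubiquitin chain formation, inhibition measured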
T3 sequence (P61088 whole entry): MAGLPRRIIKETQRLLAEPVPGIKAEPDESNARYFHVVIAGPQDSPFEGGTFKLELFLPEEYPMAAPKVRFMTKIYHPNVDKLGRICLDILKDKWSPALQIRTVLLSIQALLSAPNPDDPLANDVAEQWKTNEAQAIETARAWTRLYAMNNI

[13] = biological target: Hepatocyte nuclear factor 4-alpha (Homo sapiens, UniProt P41235); assay type: functional, cell-based;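 note: biochemical luminescence-based dose-response counterscreen measuring inhibition of HNF4 dimerization, run alongside a screen for blockers of ABHD5–perilipin-5 interaction; split luciferase complementation of HNF4 fusion proteins in cell lysate measuring dimerization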
Hepatocyte nuclear factor 4-alpha, sequence (P41235 whole entry, the tested form may be a part): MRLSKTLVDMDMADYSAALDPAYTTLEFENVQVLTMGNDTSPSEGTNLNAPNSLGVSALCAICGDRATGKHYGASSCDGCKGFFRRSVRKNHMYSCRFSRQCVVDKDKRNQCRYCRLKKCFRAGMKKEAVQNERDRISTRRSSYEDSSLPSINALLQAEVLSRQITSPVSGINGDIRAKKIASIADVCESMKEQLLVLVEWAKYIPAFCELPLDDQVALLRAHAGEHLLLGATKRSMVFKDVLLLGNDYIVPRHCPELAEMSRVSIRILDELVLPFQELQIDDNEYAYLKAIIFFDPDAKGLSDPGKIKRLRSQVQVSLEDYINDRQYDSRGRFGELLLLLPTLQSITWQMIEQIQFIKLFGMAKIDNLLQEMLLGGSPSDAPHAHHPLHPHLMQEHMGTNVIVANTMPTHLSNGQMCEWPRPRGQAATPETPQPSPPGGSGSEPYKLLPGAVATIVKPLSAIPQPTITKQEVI

[14] = biological target: FAD-linked sulfhydryl oxidase ALR (Homo sapiens, UniProt P55789); assay: ALR-catalysed DTT oxidation blockers – biochemical, H2O2 detection, luminescence, cherry-pick, dose response (AID 493248)
FAD-linked sulfhydryl oxidase ALR, sequence (P55789 whole entry): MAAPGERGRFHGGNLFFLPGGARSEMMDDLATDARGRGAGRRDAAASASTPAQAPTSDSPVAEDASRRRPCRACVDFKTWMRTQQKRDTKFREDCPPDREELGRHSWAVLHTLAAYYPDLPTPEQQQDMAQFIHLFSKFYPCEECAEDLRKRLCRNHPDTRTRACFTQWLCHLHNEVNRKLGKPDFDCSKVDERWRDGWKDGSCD

[15] = biological target: T4, DNA repair protein RAD52 homolog (Homo sapiens, UniProt P43351); assay type: functional, biochemical
T4 sequence (P43351 whole entry): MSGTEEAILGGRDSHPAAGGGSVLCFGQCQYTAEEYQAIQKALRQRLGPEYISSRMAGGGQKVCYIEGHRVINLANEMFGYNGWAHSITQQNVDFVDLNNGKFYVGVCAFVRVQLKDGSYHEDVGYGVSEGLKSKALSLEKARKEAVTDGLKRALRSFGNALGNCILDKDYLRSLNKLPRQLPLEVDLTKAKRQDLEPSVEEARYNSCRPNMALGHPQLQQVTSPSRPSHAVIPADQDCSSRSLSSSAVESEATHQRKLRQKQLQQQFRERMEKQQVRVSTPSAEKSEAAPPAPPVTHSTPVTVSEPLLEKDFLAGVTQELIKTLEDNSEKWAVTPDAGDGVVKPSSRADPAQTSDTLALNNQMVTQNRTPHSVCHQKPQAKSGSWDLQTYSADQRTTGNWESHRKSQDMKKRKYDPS

[16] = biological target: T5, Sentrin-specific protease 8 (Homo sapiens, UniProt Q96LD8); assay type: functional
T5 sequence (Q96LD8 whole entry): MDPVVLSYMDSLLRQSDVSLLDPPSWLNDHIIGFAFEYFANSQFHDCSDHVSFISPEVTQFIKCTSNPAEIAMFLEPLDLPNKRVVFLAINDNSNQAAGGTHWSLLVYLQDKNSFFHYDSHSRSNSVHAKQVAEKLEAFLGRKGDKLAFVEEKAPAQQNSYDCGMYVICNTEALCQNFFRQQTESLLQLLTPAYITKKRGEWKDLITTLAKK

[17] = biological target: T5, Sentrin-specific protease 8; assay type: functional; remark: listed apart in the source
Caspase-3 = biological target: T6, Caspase-3 (Homo sapiens, UniProt P42574); assay: Dose-response confirmation of uHTS inhibitor hits of Sentrin-Specific Protease 8 in a Caspase-3 Fluorescence assay.; assay type: functional
T6 sequence (P42574 whole entry): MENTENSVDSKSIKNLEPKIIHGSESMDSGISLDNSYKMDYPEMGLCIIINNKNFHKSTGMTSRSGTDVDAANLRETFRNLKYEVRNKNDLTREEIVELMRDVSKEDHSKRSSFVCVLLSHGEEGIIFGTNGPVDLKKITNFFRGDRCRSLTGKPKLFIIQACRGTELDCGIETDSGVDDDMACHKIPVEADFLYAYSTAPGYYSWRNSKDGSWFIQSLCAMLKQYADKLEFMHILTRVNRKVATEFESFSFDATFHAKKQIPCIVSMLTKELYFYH

[18] = biological target: Tyrosine-protein phosphatase non-receptor type 22 (Homo sapiens, UniProt Q9Y2R2); assay: lymphoid phosphatase LYP inhibitors – biochemical, selectivity assay for STEP inhibitor project, dose response (AID 624241); assay type: functional
Tyrosine-protein phosphatase non-receptor type 22, sequence (Q9Y2R2 whole entry): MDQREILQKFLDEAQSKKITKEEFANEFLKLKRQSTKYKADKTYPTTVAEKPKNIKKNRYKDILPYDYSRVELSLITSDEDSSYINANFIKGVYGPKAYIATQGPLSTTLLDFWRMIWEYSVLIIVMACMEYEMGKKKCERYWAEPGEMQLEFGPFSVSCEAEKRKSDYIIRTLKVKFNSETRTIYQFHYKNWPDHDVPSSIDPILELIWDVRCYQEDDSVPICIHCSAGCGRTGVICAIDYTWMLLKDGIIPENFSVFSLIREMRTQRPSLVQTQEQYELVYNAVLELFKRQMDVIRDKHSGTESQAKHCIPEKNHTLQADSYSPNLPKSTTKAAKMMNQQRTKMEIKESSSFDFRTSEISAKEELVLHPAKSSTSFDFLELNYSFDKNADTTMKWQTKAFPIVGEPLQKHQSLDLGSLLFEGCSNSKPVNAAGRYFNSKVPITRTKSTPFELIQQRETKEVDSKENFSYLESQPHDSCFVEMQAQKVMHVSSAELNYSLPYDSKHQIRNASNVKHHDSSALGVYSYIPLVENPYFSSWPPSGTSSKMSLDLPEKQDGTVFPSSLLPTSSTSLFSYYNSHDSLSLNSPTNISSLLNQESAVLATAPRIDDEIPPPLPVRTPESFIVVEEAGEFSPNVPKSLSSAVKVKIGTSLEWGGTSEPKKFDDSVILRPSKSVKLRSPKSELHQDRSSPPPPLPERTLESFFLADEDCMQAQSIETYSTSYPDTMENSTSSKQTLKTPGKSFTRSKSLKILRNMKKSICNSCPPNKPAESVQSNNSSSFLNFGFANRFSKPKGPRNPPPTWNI

HEK293 = assay: cells; assay type: functional, cell-based; settings: Homo sapiens
[19] = biological target: T7, Tyrosine-protein phosphatase non-receptor type 11 (Homo sapiens, UniProt Q06124); assay: PTPN11 enzyme inhibitors – biochemical, selectivity assay for STEP inhibitor project, dose response (AID 602367); assay type: functional; settings: read-out: IC50_Mean
T7 sequence (Q06124 whole entry): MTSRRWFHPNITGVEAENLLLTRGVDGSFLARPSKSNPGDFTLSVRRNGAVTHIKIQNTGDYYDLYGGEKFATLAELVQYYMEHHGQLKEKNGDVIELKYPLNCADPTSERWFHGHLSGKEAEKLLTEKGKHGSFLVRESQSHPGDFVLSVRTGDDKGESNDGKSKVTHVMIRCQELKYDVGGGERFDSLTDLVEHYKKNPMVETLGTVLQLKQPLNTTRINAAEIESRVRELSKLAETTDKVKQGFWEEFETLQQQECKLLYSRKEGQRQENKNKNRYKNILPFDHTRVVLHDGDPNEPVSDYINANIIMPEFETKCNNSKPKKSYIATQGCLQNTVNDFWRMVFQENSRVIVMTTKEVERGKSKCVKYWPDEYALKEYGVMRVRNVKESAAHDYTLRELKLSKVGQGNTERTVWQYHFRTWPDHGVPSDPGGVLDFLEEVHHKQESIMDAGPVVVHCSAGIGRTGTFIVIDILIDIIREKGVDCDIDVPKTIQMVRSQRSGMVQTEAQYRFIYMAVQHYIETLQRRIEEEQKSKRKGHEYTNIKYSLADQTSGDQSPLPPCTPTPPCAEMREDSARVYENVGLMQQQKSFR

[20] = biological target: Glucose-6-phosphate 1-dehydrogenase (Homo sapiens, UniProt P11413); assay: inhibition of Homo sapiens G6PD, dose series – biochemical, fluorescence, selectivity assay for P. falciparum G6PD inhibitor project, dose response (AID 504792); assay type: functional
[21] = biological target: T8, Nuclear receptor subfamily 0 group B member 1 (Homo sapiens, UniProt P51843); assay: Luminescence-based cell-based high throughput dose response assay for inhibitors of the orphan nuclear receptor subfamily 0, group B, member 1 (DAX1; NR0B1). [Related pubchem assays (depositor defined):AID504766, AID504790]; assay type: functional
T8 sequence (P51843 whole entry): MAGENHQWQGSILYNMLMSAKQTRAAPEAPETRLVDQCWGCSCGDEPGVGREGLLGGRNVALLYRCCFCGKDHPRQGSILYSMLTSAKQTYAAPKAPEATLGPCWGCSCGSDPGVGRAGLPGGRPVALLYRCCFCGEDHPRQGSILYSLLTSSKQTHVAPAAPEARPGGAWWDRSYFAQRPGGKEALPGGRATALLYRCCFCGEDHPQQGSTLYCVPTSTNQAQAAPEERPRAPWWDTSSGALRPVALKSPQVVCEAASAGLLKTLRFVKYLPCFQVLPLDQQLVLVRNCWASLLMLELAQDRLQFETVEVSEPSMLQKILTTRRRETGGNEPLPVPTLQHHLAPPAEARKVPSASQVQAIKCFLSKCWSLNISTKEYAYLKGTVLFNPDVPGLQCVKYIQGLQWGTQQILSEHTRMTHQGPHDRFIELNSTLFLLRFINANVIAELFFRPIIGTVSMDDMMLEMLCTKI

[22] = biological target: Dual specificity protein phosphatase 3 (Homo sapiens, UniProt P51452); assay: VHR phosphatase inhibition, dose response, selectivity assay for STEP inhibitor project, biochemical (AID 602374); assay type: functional; settings: read-out: IC50_Mean
Dual specificity protein phosphatase 3, sequence (P51452 whole entry): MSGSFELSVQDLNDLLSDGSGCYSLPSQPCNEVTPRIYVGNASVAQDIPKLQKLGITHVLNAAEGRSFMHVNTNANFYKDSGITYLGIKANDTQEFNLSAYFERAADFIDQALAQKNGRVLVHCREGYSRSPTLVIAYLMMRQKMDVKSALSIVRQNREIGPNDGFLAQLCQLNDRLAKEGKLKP

[23] = biological target: T9, Tyrosine-protein phosphatase non-receptor type 5 (Homo sapiens, UniProt P54829); assay: PTPN5 enzyme inhibition – biochemical, fluorescence intensity, uHTS hits, confirmation (AID 602372); assay type: functional; settings: read-out: IC50_Mean
T9 sequence (P54829 whole entry): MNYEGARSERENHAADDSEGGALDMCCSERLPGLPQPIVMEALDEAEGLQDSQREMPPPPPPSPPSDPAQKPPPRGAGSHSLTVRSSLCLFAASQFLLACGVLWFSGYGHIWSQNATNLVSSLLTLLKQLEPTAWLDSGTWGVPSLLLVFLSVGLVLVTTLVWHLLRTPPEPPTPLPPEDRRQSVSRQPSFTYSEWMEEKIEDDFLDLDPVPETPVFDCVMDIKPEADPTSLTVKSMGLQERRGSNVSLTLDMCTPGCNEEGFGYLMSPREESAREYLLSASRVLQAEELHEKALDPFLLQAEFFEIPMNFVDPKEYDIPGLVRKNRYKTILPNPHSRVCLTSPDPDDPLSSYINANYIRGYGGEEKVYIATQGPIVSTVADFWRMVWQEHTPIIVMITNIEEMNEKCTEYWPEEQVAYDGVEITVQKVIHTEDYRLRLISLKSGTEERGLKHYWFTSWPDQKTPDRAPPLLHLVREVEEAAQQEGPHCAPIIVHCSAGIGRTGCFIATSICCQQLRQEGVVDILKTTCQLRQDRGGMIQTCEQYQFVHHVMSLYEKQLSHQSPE

[24] = biological target: Broad substrate specificity ATP-binding cassette transporter ABCG2 (Homo sapiens, UniProt Q9UNQ0); assay: blockers of JC-1 export by ABCG2 – Ig-MXP3 cells, flow cytometry, dose response (AID 1690); assay type: functional
Broad substrate specificity ATP-binding cassette transporter ABCG2, sequence (Q9UNQ0 whole entry): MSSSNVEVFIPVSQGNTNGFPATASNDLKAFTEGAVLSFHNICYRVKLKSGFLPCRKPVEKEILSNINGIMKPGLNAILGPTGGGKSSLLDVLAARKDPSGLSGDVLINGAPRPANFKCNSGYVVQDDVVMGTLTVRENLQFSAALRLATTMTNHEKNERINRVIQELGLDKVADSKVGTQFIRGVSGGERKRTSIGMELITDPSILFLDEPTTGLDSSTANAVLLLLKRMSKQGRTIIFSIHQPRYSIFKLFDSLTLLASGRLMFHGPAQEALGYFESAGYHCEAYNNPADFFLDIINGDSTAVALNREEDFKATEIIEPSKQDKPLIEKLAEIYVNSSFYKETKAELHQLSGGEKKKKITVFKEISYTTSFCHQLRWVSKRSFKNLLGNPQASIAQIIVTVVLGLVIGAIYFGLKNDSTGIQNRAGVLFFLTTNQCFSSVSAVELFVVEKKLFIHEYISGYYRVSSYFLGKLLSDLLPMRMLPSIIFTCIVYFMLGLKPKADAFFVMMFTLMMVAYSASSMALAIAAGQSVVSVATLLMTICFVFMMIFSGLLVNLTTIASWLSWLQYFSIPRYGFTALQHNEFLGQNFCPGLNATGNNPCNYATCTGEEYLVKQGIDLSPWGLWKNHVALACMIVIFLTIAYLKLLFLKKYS

[25] = biological target: 26S proteasome non-ATPase regulatory subunit 14 (Homo sapiens, UniProt O00487); assay: inhibition of proteasome subunit RPN11 – biochemical, fluorescence polarization, uHTS hits, confirmation (AID 602368); assay type: functional
26S proteasome non-ATPase regulatory subunit 14, sequence (O00487 whole entry): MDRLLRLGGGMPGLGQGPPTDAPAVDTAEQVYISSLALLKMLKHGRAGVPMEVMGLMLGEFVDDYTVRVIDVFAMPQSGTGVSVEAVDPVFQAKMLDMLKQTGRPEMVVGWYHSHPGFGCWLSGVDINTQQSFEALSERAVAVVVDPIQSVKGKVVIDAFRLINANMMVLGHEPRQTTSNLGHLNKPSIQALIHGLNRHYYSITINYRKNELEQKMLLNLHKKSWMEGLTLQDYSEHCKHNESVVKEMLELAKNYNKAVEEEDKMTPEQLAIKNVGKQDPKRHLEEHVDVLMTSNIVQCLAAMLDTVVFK

[26] = biological target: 72 kDa type IV collagenase (Homo sapiens, UniProt P08253); assay: Dose Response validation of uHTS RPN11 inhibitor hits using a MMP-2 Fluorescence assay.; assay type: functional
[27] = biological target: T10, Low molecular weight phosphotyrosine protein phosphatase (Homo sapiens, UniProt P24666); assay type: functional; settings: read-out: IC50_Mean
T10 sequence (P24666 whole entry): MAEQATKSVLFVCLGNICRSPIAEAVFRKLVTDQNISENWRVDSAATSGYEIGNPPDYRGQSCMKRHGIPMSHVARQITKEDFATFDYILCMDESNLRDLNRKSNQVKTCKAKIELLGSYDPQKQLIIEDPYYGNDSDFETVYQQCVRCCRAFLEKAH

[28] = biological target: T10, Low molecular weight phosphotyrosine protein phosphatase; assay type: functional; settings: read-out: IC50_Mean; remark: listed apart in the source
Prothrombin = Prothrombin (Bos taurus, UniProt P00735); assay: thrombin protease inhibitors – biochemical, fluorescence polarization, uHTS hits, dose response (AID 602369); assay type: functional
Mu-type opioid receptor = Mu-type opioid receptor (Homo sapiens, UniProt P35372); assay type: functional, cell-based;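 note: U2OS cells with beta-arrestin recruitment to OPRM1 by beta-gal complementation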
[29] = biological target: 5-hydroxytryptamine receptor 2A (Mus musculus, UniProt P35363); assay type: functional, cell-based;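 note: CHO-K1 cells with tagged receptor and beta-arrestin; agonist potency measured as compound-induced activation of the receptor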
5-hydroxytryptamine receptor 2A, sequence (P35363 whole entry): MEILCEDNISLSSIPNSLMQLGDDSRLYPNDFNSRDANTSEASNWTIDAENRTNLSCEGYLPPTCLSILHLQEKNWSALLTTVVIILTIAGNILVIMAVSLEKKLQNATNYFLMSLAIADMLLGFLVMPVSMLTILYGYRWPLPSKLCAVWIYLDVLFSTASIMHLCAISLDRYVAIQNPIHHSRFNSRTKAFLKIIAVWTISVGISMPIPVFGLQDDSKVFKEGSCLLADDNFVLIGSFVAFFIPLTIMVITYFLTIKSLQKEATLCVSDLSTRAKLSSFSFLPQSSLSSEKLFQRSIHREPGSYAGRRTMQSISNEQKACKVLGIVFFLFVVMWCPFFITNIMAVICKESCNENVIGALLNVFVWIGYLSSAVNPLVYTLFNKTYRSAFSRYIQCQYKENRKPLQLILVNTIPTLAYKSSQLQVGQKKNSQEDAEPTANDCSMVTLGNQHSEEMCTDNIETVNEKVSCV

## C[C@H]1CN([C@@H](C)CO)C(=O)c2cccc(NC(=O)c3ccncc3)c2O[C@H]1CN(C)Cc1ccccc1
[1]
  IC50: 19.2 µM (inactive)
[2]
  IC50: 19.2 µM (inactive)
[3]
  IC50: 51.5 µM (inactive)
[4]
  AC50: 0.267 µM (active)
[5]
  IC50: > 100 µM (inactive)
[6]
  IC50: > 100 µM (inactive)

## C[C@H]1CN([C@@H](C)CO)C(=O)c2cccc(NS(C)(=O)=O)c2O[C@H]1CN(C)Cc1ccc(Oc2ccccc2)cc1
[7]
  AC50: < 0.003 µM (active)
[8]
  AC50: 0.003 µM (active)

## O=C(c1ccoc1)N1CCN(c2cc(-c3ccccc3)nc3cc(-c4cccc(Cl)c4)nn23)CC1
[9]
  EC50: 1 µM (active)
[10]
  EC50: 9.03 µM (active)

## CCSc1ccc2c(c1)N(CCCN1CCN(C)CC1)c1ccccc1S2
[11]
  CC50: 16.3 µM (active)
[12]
  IC50: > 20 µM (inactive)
[13]
  IC50: 29.9 µM (inactive)
[14]
  AC50: 1.09 µM (active)
[15]
  AC50: 14.9 µM (active)

## COc1ccc(OC)c(S(=O)(=O)N(C)CC(=O)N2CCc3ccccc3C2)c1
[16]
  IC50: 8.07 µM (active)
[17]
  IC50: 9.57 µM (active)
Caspase-3
  IC50: 30.8 µM (active)

## CCN1CCN(C(=S)c2ccc(O)cc2)CC1
[18]
  IC50: 45.1 µM (inactive)
HEK293
  IC50: > 67.6 µM (inactive)
[19]
  IC50: 0.712 µM (active)
[20]
  IC50: > 80 µM (inactive)
[21]
  IC50: > 67.6 µM (inactive)
[22]
  IC50: 0.74 µM (active)
[23]
  IC50: 20.1 µM (inactive)

## Cc1cc(C)c(C#N)c(SCc2c(F)cccc2[N+](=O)[O-])n1
[24]
  EC50: 3.82 µM (active)

## COc1ccc(NC(=O)CCn2c(=S)[nH]c3ccccc3c2=O)cc1Cl
[25]
  IC50: 26.3 µM (active)
[26]
  IC50: 4.32 µM (active)
[27]
  IC50: 12 µM (active)
[28]
  IC50: 68.3 µM (inactive)
Prothrombin
  IC50: > 100 µM (inactive)

## COc1cccc(CN2CCN(C(=O)c3ccco3)CC2)c1
Mu-type opioid receptor
  EC50: 92.5 µM (inactive)
[29]
  EC50: 1.16 µM (active)

— ChEMBL document CHEMBL1201862, “PubChem BioAssay data set” (2004)
